Assay results reported in US20230105693A1, “ANTIMICROBIAL COMPOSITIONS” (Firmenich SA, priority 2020, published 2023).
Counter-ions that a name gives are not always drawn. Like-named read-outs stand apart in the source and are kept apart here.

Columns and labels:
[1] = Equivalent alkane carbon number (EACN) in model microemulsion system; assay type: physicochemical; settings: C10E5/water/isopropyl myristate model system, 3% wt perfume ingredient
Experimental: EACN values provide information on polarity and surface activity of apolar ingredients. Tchakalova and Fieber (J. of Surfactants and Detergents, 2012, 15(2):167-177) classified perfume ingredients based on values of EACNmix, the EACN of a mixture consisting of a test perfume ingredient and a reference oil (isopropyl myristate). The same model system and method were used to measure the EACN values of perfume ingredients with antimicrobial activities. Different perfume ingredients were added to the model microemulsion system shown in Table 1, in which the nonionic pentaethylene glycol mono n-decyl ether (C10E5) was used as surfactant. Phase transition temperatures of the system from Winsor I to Winsor III, and from Winsor III to Winsor II were determined using a water bath. Alkanes with different alkane carbon numbers (octane, decane, dodecane and hexadecane) were used to establish a linear correlation curve between EACN and the PIT, which is the average of the transitions from Winsor I to Winsor III, and from Winsor III to Winsor II, respectively. EACNmix was then calculated based on the linear relationship and the measured PIT for systems containing different perfume ingredients. The EACN of the pure perfume ingredient was calculated based on the molar ratio of the tested PRMs in the oil phase using following equation: […]
wherein n and nref are the molar fractions of tested perfume ingredient and the reference ingredient (i.e., isopropyl myristate) in the oil phase, respectively.

[2] = test system: Escherichia coli ATCC 10536; assay: Robotic BCT test of perfume ingredients in model surfactant bases; assay type: cell-based; settings: for Log reduction (Log CFU/mL) Base 3: Base 3: SLES 1.5%, coco-glucoside 0.75%; for Log reduction (Log CFU/mL) Base 4: Base 4: SLES 2.25%, sodium xylene sulfonate 3%; for log reduction at 0.5 %: Escherichia coli, ATCC10536, 45 s
Experimental: The surfactant bases tested included 1) sodium lauryl ether sulfate (SLES) and cocamidopropyl betaine (CAPB) at 3:1 mass ratios; 2) SLES, CAPB and coco-glucoside at 2:1:1 mass ratios. Test samples were prepared by mixing perfume ingredients with the surfactant bases and vigorously stirred for 24 hrs. Concentration of perfume ingredients in the bases was 0.5% wt. Samples with transparent appearance were selected for antimicrobial testing.
Antimicrobial efficacy was tested against a representative Gram-negative bacterial strain, Escherichia coli ATCC 10536, using robotic bacteria contact time (BCT) test based on European standard EN-1276 and EP2787827(B1).
Preparation of screening plate and dilution plate: Aliquots (270 µl) of compositions were dispensed into the wells of a 96-well microtiter plate (MTP) along two columns (B1-H1, and B7-H7), and 270 µl of MilliQ water was added to well A1 and A7 as the control samples. This MTP was labelled as the “Screening plate”. In another MTP, labelled as the “Dilution plate”, 270 µL of Dey-Engley (D/E) neutralizing solution was added to column 1 and column 7. 270 µl of tryptone diluent solution was added to columns 2-6 and columns 8-12 of the Dilution MTP by a Hamilton robotic liquid handling station.
BCT test & neutralization & dilution: Bacterial stock (30 µl) was then added to columns 1 of the ‘Screening plate’ and mixed by a Hamilton robotic liquid handling station. After a contact time of 45 seconds, 30 µl of the mixtures in column 1 were transferred into the corresponding wells of column 1 of the ‘Dilution plate’. After neutralizing for 5 minutes in the D/E neutralizing solution, 30 µl of the neutralized mixtures were transferred from column 1 to column 2 of the Dilution MTP and mixed, followed by transferring 30 µl of the mixtures from column 2 into column 3. This process was repeated serially diluting the bacteria suspensions across the plate to column 6. Bacterial stock (30 µl) was then added to columns 7 of the ‘Screening plate’ and mixed by a Hamilton robotic liquid handling station. After a contact time of 45 seconds, 30 µl of the mixtures in column 7 were transferred into the corresponding wells of column 7 of the ‘Dilution plate’. After neutralizing for 5 minutes in the D/E neutralizing solution, 30 µl of the mixtures were transferred from column 7 to column 8 of the Dilution MTP and mixed, followed by transferring further 30 µl mixtures from column 8 into column 9. This process was repeated serially diluting the bacteria suspensions across the plate to column 12.
Plating: 30 µl volumes from each well in the Dilution MTP were transferred onto four Tryptone Soya Agar (TSA) plates. The TSA plates were allowed to stand for about two hours so that the 30 µl inocula spots could dry and the plates were then inverted and incubated overnight at 37° C. for 24 hours. After incubation, colonies were counted.
Calculating log reduction: Select the dilutions with colony counts, and calculate the viable cell counts (CFU/mL) of mixture in ‘Screening plate’, and log reduction against the control MilliQ sample was calculated.

E. coli ATCC 10536 = assay: Bacterial contact time (BCT) test of perfume ingredients in 20% ethanol solution (EN-1276 based); assay type: cell-based, Escherichia coli; settings: 20% EtOH, 45 s
Experimental: Bacterial suspensions of E. coli ATCC 10536 were prepared for antimicrobial testing as follows. Stock cultures stored at -80° C. were sub-cultured onto Tryptic Soy Agar (TSA) plate, and incubated at 37° C. for 24 h to obtain single colonies. Single colonies of the primary cultures were streaked onto TSA plates and incubated at 37° C. for 24 h to prepare the secondary cultures. Single colonies of secondary cultures were inoculated into 50 mL of Tryptic Soy broth (TSB), incubated at 37° C. 180 rpm for 18 h. Aliquots (0.5 ml) of the 18 h culture were inoculated into 50 ml of fresh TSB, and incubated at 37° C. 180 rpm for 2- 3 hours. When the OD600 nm value of the broth reached 1-2, cells were harvested by centrifugation at 5,000 rpm for 10 min, and then resuspended in the same fresh broth media to achieve the target level of 1-5 × 10^8 colony forming unit (CFU)/mL. This suspension was used for further antimicrobial tests.
Unless indicated otherwise, log reduction testing according to the present invention is determined in accordance with the following method.
Bacterial contact time (BCT) test based on European standard EN-1276 was used to determine dose dependent bactericidal activity of perfume ingredients in 20% ethanol solutions.
Perfume ingredients of various concentrations (doses) were prepared in 40% ethanol solutions. Eleven replicates of each sample were added into 96-well microtiter plates (120 µl per well) in column 1-11 of one row, with row B as the control sample of the ethanol solution. Then, 120 µl of cell suspension at a concentration of approximately 1-5 × 10^8 CFU/ML (as prepared above) were added to each well of the microtiter plate. A specified contact time (45 s) was allowed for target bacterial strains. At the end of the contact time, serial dilutions were prepared in 96 well plates with growth media: 3 times of 1 in 10 dilutions and followed by 17 times of 1 in 2 dilutions. Each plate was sealed and incubated at 37° C. under agitation (180 rpm). After incubation, turbidity of the wells (OD 600 nm) was recorded by Tecan microplate reader. Turbid cells were regarded as positive growth of viable cells. The total number of viable cells (log CFU/mL) for each sample was calculated. And the log reduction for each test composition at the final concentration (dose) was calculated against the control sample of the 20% ethanol solution.
Table 20 show the bactericidal dose related effect (log reduction) and calculated effect fraction of the Mixture C and compositions against E. coli ATCC 10536. Stock of compositions were prepared in 100% ethanol, then diluted in MilliQ water to obtain 2 × final concentration in 40% ethanol. BCT tests were conducted on samples against E. coli for a contact time of 45 s.

[3] = 0.5% perfume ingredient, CAPB 0.75%, contact 45 s
[4] = 0.5% perfume ingredient, Base 1: SLES 1.875%, CAPB 0.625%, contact 45 s, read-out: Log reduction in Base 1 (Log CFU/mL)
[5] = 0.5% perfume ingredient, Base 2: SLES 2.25%, CAPB 0.75%, contact 45 s, read-out: Log reduction (Log CFU/mL) Base 2
[6] = model base 1, table by functional group, read-out: Log reduction in Base 1 (Log CFU/mL)

In the case of `CC(=O)OC(C)c1ccccc1` (racemic) [(+-)-1-phenylethyl acetate], the EACN [1] is reported as -0.99, the “Log reduction (Log CFU/mL) Base 3” value [2, 3] is reported as 0.2 Log CFU/mL and the “Log reduction (Log CFU/mL) Base 4” value [2, 3] is reported as “Insoluble”. For the same molecule, the log reduction at 0.5 % [2, 4] was 0.6 ± 1 and the log reduction at 0.5 % [2, 5] was 0.

Work on `CC1=CC(C)C(CO)C(C)C1` (racemic) [(+-)-2,4,6-trimethyl-3-cyclohexene-1-methanol] yielded an EACN [1] of -25.02.

Molecule `Cc1ccc2c(c1)CC(C)(CO)C2` (racemic) [(+-)-2,5-dimethyl-2-indanmethanol] has an EACN [1] of -33.01.

In the case of `CC(CO)c1ccccc1` (racemic) [(+-)-2-phenyl-1-propanol], the EACN [1] is reported as -29.67 and the log reduction at 0.5 % [2, 4] is reported as -0.3.

`CC(C=O)Cc1ccc2c(c1)OCO2` (racemic) [(+-)-3-(1,3-benzodioxol-5-yl)-2-methylpropanal] showed an EACN [1] of -11.56.

`CCCCCC1CCCC(=O)O1` (racemic) [(+-)-6-pentyltetrahydro-2H-pyran-2-one] gave an EACN [1] of -13.27.

`CC1=CCC(C(C)(C)O)CC1` (racemic) [(+-)-alpha-terpineol] showed an EACN [1] of -16.69 and a log reduction at 0.5 % [2, 4] of 1.6.

`CCCCC(CC)CO` (stereo not shown) [2-ethyl-1-hexanol] showed an Effect fraction (E. coli ATCC 10536; dose 0.060% w/v) of 0.050, a Log reduction (E. coli ATCC 10536; dose 0.060% w/v) of 0.367 and an Effect fraction (E. coli ATCC 10536; dose 0.065% w/v) of 0.100. It also gave a Log reduction (E. coli ATCC 10536; dose 0.065% w/v) of 0.728, an Effect fraction (E. coli ATCC 10536; dose 0.070% w/v) of 0.290 and a Log reduction (E. coli ATCC 10536; dose 0.070% w/v) of 2.052. For the same molecule, the Effect fraction (E. coli ATCC 10536; dose 0.075% w/v) was 0.510, the Log reduction (E. coli ATCC 10536; dose 0.075% w/v) was 3.678 and the Effect fraction (E. coli ATCC 10536; dose 0.080% w/v) was 0.800. It also gave a Log reduction (E. coli ATCC 10536; dose 0.080% w/v) of 5.760, an EACN [1] of -22.63 and a log reduction at 0.5 % [2, 4] of 3.6. For the same molecule, the log reduction at 0.5 % [2, 6] was 3.6.

`C/C=C/c1ccc(O)c(OC)c1` [2-methoxy-4-[(1E)-1-propen-1-yl]phenol] gave an EACN [1] of -42.88 and a log reduction at 0.5 % [2, 4] of 0.

`O=COCCc1ccccc1` [2-phenylethyl formate] gave an EACN [1] of -6.21 and a log reduction at 0.5 % [2, 4] of 0.3.

For `CC/C=C\CC1=C(C)CCC1=O` [3-methyl-2-[(2Z)-2-penten-1-yl]-2-cyclopenten-1-one], the EACN [1] was -8.51.

Work on `CC(C)(C)C1CCC(=O)CC1` [4-(2-methyl-2-propanyl)cyclohexanone] yielded an EACN [1] of -3.78.

With `CCCc1ccc2c(c1)OCC(=O)CO2` [7-propyl-2H,4H-1,5-benzodioxepin-3-one] the EACN [1] was -40.99 and the log reduction at 0.5 % [2, 4] was 0.

With `CC/C=C\CC/C=C/CO` [(2E,6Z)-2,6-nonadien-1-ol] the EACN [1] was -35.12, the “Log reduction (Log CFU/mL) Base 3” value [2, 3] was 3.9 Log CFU/mL and the “Log reduction (Log CFU/mL) Base 4” value [2, 3] was over 4.5 Log CFU/mL. The log reduction at 0.5 % [2, 4] was 5.6, the log reduction at 0.5 % [2, 5] was 0.5 and the log reduction at 0.5 % [2, 6] was over 5.5.

Molecule `CC(C)=CCC/C(C)=C\C=O` [(2Z)-3,7-dimethyl-2,6-octadienal OR (2E)-3,7-dimethyl-2,6-octadienal] has an EACN [1] of -5.09.

For `CC/C(=C\C[C@H]1CC=C(C)C1(C)C)CO` [(-)-(2E)-2-ethyl-4-[(1R)-2,2,3-trimethyl-3-cyclopenten-1-yl]-2-buten-1-ol], the EACN [1] was -23.86, the “Log reduction (Log CFU/mL) Base 3” value [2, 3] was “Insoluble” and the “Log reduction (Log CFU/mL) Base 4” value [2, 3] was “Insoluble”. The log reduction at 0.5 % [2, 4] was -0.2 and the log reduction at 0.5 % [2, 5] was -1.

With `CC(C)=CCC/C(C)=C/CO` [(E)-3,7-dimethyl-2,6-octadien-1-ol] the Effect fraction (E. coli ATCC 10536; dose 0.040% w/v) was -0.020, the Log reduction (E. coli ATCC 10536; dose 0.040% w/v) was -0.175 and the Effect fraction (E. coli ATCC 10536; dose 0.050% w/v) was 0.130. The Log reduction (E. coli ATCC 10536; dose 0.050% w/v) was 0.909, the Effect fraction (E. coli ATCC 10536; dose 0.055% w/v) was 0.350 and the Log reduction (E. coli ATCC 10536; dose 0.055% w/v) was 2.474. The Effect fraction (E. coli ATCC 10536; dose 0.060% w/v) was 0.660, the Log reduction (E. coli ATCC 10536; dose 0.060% w/v) was 4.760 and the Effect fraction (E. coli ATCC 10536; dose 0.070% w/v) was 1.000. For the same molecule, the Log reduction (E. coli ATCC 10536; dose 0.070% w/v) was 7.160, the EACN [1] was -28.65 and the “Log reduction (Log CFU/mL) Base 3” value [2, 3] was 4.2 Log CFU/mL. The “Log reduction (Log CFU/mL) Base 4” value [2, 3] was “Insoluble”, the log reduction at 0.5 % [2, 4] was over 5.4 and the log reduction at 0.5 % [2, 5] was 0.5. For the same molecule, the log reduction at 0.5 % [2, 6] was over 5.5.

In the case of `CC(C)=CCC/C(C)=C\CO` [(Z)-3,7-dimethyl-2,6-octadien-1-ol], the EACN [1] is reported as -28.26, the “Log reduction (Log CFU/mL) Base 3” value [2, 3] is reported as 4.9 Log CFU/mL and the “Log reduction (Log CFU/mL) Base 4” value [2, 3] is reported as 4.5 Log CFU/mL. For the same molecule, the log reduction at 0.5 % [2, 4] was over 5.4, the log reduction at 0.5 % [2, 5] was 0.5 and the log reduction at 0.5 % [2, 6] was over 5.5.

`CCOC(=O)Cc1ccccc1` [ethyl phenylacetate] gave an EACN [1] of -7.26.

In the case of `CCCCCCCCCCC=O` [undecanal], the EACN [1] is reported as 4.59.
